Measurements from ChEMBL document CHEMBL1201862, “PubChem BioAssay data set” (2004).
Where “and” joins values, the source holds several entries; their conditions need not be identical. Equal values may be shown once. Calls of active or inactive are those of the source. Rule as the data show it, for most assays here: actives have a measured EC50 and inactives only a lower limit.

Assays:
[1] = viability of uninfected HEp-2 cells – cell-based, HTS, cytotoxicity control for RSV inhibitor project, dose response (AID 2410); type: functional; conditions: human respiratory syncytial virus
[2] = Luminescence Cell-Based Dose Response HTS to Identify Inhibitors of 5'UTR Stem-Loop Driven Prion Protein mRNA Translation in H4 Neuroglioblastoma Cells. [Related pubchem assays: 1827 (Project Summary), 1813 (Primary HTS)]; type: functional
[3] = HEK-293T viability loss after treatment – luminescence, T-cell screen hits, cytotoxicity control for TCR NF-kB inhibitor project, dose response (AID 489026); type: functional, cell-based;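 also: cells exposed to compound about 14 hours before the viability readout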
cells = type: functional, cell-based
[4] = DRD fibroblast viability loss – cell-based, non-viral oncogenic, luminescence, dose response (AID 1934); type: functional; conditions: Homo sapiens
[5] = alpha-synuclein stem-loop translation blockers – luminescence, H4 neuroglioblastoma cells, dose confirmation, confirmation (AID 2454); type: functional, cell-based;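 also: H4 neuroglioblastoma cells carrying an alpha-synuclein 5'UTR luciferase reporter; potency for inhibition of the luciferase signal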
BJ [6] = experiment: BJ-TERT-LT-ST fibroblast viability loss – cell-based, RAS-independent, luminescence, dose response (AID 1935); type: functional; conditions: Homo sapiens;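 also: BJ fibroblasts immortalized with TERT plus LT and ST oncogenes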
[7] = alpha-synuclein stem-loop luciferase translation blockers – H4 neuroglioma cells, luminescence, confirmation (AID 1988); type: functional, cell-based
BJ [8] = experiment: cells; type: functional, cell-based; conditions: Homo sapiens
[9] = luciferase reporter signal suppression in cells – H4 neuroglioma cells, luminescence, dose response (AID 1990); type: functional, cell-based
BJ [10] = experiment: BJ-TERT fibroblast viability loss – cell-based, RAS-independent, luminescence, dose response (AID 1933); type: functional; conditions: Homo sapiens
[11] = luciferase reporter signal reduction – luminescence, H4-C neuroglioblastoma cells, dose response (AID 2458); type: functional, cell-based;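 also: H4 neuroglioblastoma cells stably carrying a luciferase reporter gene fusion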
[12] = biological target: Serine/threonine-protein phosphatase PP1-alpha catalytic subunit (Homo sapiens, UniProt P62136); experiment: inhibition of protein phosphatase 1 activity – biochemical, fluorescence, dose response (AID 2403);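 also: phosphatase turnover of OMFP into fluorescent 3-O-methylfluorescein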
[13] = biological target: Serine/threonine-protein phosphatase (Homo sapiens, UniProt Q9BPW0); experiment: Counterscreen for inhibitors of PP1: fluorescence-based biochemical high throughput dose response assay to identify inhibitors of Protein Phosphatase 5 (PP5). [Related pubchem assays: 2034 (Summary (PP5 inhibitors)), 1987 (PP5 inhibitors in singlate), 2235 (PP1 inhibitors in singlate)]
Cytochrome P450 3A4 = Cytochrome P450 3A4 (Homo sapiens, UniProt P08684); conditions: Potency;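 also: confirmatory qHTS run detecting inhibitors and substrates of CYP3A4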
Cytochrome P450 2D6 = Cytochrome P450 2D6 (Homo sapiens, UniProt P10635); experiment: qHTS Assay for Inhibitors and Substrates of Cytochrome P450 2D6. [Related pubchem assays: 410 ]; type: ADME; conditions: read-out: Potency
Bcl-2-like protein 10 = Bcl-2-like protein 10 (Homo sapiens, UniProt Q9HD36); experiment: Concentration-response of Bcl-B inhibitors by biochemical FP with TR3 (AID 1243); type: functional
[14] = biological target: Luciferin 4-monooxygenase (Photinus pyralis, UniProt P08659); experiment: Counter Screen for Luciferase-based Assay Positives. [Related pubchem assays: 620, 618, 411 ]
HT-1080 = experiment: HT1080 cell viability loss – fluorescence readout (AID 620); type: functional, cell-based; conditions: Homo sapiens

Sequence of Cytochrome P450 3A4 (P08684 whole entry): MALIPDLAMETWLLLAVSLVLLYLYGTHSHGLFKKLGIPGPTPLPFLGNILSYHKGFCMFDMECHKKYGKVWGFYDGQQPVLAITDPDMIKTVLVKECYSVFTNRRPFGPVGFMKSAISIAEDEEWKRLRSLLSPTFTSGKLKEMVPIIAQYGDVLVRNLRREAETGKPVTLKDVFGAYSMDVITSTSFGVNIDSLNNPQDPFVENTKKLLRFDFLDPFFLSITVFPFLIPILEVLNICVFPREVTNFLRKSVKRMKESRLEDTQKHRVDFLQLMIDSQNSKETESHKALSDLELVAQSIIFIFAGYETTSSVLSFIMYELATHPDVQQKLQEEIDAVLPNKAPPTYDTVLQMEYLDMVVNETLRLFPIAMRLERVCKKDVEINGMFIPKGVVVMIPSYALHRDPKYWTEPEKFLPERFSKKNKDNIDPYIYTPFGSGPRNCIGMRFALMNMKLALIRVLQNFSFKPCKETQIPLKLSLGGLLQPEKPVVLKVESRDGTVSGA
Sequence of Cytochrome P450 2D6 (P10635 whole entry): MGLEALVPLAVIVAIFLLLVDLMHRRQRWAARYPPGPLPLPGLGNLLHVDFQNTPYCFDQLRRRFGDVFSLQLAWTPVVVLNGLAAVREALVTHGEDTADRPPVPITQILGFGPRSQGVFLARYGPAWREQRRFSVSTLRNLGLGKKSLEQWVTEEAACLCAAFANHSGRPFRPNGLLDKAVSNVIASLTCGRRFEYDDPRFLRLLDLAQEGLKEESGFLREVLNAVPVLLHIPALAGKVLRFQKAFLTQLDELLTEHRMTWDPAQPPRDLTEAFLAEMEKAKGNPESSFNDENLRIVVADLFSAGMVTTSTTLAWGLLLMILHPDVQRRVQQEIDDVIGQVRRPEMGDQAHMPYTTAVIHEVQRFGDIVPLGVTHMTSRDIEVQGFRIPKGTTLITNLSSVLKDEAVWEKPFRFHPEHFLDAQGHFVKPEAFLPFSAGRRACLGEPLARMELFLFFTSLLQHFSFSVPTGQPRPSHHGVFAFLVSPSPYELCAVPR
Sequence of Serine/threonine-protein phosphatase PP1-alpha catalytic subunit (P62136 whole entry): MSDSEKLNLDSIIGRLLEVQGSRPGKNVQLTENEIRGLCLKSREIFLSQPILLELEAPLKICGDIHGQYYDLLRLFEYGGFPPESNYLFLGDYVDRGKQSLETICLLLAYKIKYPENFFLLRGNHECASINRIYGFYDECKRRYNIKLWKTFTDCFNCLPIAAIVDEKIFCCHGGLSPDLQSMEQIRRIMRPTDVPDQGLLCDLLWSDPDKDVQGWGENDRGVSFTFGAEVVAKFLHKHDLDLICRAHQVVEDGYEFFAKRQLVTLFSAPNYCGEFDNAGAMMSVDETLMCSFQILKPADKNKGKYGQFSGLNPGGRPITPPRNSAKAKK
Sequence of Serine/threonine-protein phosphatase (Q9BPW0 whole entry): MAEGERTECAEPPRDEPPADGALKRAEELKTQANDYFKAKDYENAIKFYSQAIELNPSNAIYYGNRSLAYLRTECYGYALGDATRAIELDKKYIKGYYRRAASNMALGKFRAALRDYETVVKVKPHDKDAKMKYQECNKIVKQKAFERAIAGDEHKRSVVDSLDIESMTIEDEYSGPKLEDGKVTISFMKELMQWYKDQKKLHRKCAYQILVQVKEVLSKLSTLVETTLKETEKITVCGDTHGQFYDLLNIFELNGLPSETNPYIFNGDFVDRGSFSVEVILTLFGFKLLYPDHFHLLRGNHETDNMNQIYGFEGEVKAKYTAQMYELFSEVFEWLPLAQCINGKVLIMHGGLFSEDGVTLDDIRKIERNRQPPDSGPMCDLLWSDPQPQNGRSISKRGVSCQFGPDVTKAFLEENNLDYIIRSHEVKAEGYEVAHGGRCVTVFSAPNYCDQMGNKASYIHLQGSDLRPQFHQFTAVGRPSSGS
Sequence of Luciferin 4-monooxygenase (P08659 whole entry): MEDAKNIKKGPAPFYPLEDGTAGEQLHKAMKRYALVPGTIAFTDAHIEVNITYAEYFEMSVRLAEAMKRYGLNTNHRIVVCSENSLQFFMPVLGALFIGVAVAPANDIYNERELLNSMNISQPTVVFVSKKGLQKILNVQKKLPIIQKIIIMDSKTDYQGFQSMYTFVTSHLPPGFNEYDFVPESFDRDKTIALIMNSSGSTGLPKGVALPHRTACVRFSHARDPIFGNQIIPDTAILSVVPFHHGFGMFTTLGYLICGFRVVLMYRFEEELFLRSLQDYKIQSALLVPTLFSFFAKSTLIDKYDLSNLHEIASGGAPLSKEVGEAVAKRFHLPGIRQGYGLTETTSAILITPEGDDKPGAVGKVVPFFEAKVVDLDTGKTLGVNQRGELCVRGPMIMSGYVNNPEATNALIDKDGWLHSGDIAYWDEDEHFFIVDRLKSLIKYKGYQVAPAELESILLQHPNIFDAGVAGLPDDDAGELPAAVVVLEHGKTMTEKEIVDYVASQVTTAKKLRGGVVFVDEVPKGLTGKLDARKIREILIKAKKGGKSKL
Sequence of Bcl-2-like protein 10 (Q9HD36 whole entry): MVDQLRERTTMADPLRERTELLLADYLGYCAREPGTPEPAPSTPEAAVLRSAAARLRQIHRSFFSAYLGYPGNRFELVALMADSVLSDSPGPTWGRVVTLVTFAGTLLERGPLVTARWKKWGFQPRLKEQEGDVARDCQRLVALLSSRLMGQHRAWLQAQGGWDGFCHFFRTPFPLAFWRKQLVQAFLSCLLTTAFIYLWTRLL

For `CC(=O)c1sc2c(c1OC(=O)c1ccc(Cl)cc1Cl)c(=O)n(-c1ccccc1)c(=S)n2-c1ccccc1`, the CC50 [1] was 1590 nM (active), the EC50 [2] was < 100 nM (active) and the IC50 [3] was > 80000 nM (inactive). For the same molecule, the EC50 (cells) was 444 nM (active), the EC50 [4] was 360 nM (inconclusive) and the EC50 [5] was 716 nM (active). For the same molecule, the EC50 (BJ [6]) was 6470 nM (inconclusive), the EC50 [7] was < 100 nM (active) and the EC50 (BJ [8]) was 104000 nM (active). The EC50 [9] was 134 nM (active), the EC50 (BJ [10]) was 201 nM (active) and the EC50 [11] was 578 nM (active).
In the case of `O=C(O)c1cc(-c2ccc(Cl)cc2)n(-c2cccc(Cl)c2)n1`, the IC50 [12] is reported as 8100 nM (active) and the IC50 [13] is reported as > 67000 nM (not active).
For `Cc1cccc(C#Cc2ccccc2)n1`, the AC50 (Cytochrome P450 3A4) was 20 µM (inconclusive) and 1.26 µM (inconclusive) and the AC50 (Cytochrome P450 2D6) was 39800 nM (inconclusive).
For `C=CCN1C(=O)/C(=C\c2cccn2-c2cccc([N+](=O)[O-])c2)C(=O)NC1=S`, the EC50 (Bcl-2-like protein 10) was 5360 nM (active).
With `O=c1/c(=C/c2ccccn2)sc2nc3ccccc3n12` the EC50 [14] was < 200 nM (active) and the EC50 (HT-1080) was > 50000 nM (not active).
